Data as given in US20170188618A1, “STABLE EMULSIONS FROM DIPEPTIDE DERIVATIVES” (UNIVERSITY OF STRATHCLYDE, priority 2014, published 2017).
Each block holds one molecule with its values, some of them ahead of it. Residues, ends and D or L forms follow the SMILES beside them. *: point of attachment. Fmoc = O=C(OCC1c2ccccc2-c2ccccc21)*

What was measured:
alkaline phosphatase = target: T1, alkaline phosphatase (Bos taurus, UniProt P19111); experiment: Dephosphorylation of Fmoc-YpL to Fmoc-YL by alkaline phosphatase (reversed phase HPLC); type: biochemical, bovine; conditions: 10 mM, buffer pH 8
T1 construct: purchased Sigma Aldrich; host or cells: Pichia pastoris
T1 sequence (P19111 20-506): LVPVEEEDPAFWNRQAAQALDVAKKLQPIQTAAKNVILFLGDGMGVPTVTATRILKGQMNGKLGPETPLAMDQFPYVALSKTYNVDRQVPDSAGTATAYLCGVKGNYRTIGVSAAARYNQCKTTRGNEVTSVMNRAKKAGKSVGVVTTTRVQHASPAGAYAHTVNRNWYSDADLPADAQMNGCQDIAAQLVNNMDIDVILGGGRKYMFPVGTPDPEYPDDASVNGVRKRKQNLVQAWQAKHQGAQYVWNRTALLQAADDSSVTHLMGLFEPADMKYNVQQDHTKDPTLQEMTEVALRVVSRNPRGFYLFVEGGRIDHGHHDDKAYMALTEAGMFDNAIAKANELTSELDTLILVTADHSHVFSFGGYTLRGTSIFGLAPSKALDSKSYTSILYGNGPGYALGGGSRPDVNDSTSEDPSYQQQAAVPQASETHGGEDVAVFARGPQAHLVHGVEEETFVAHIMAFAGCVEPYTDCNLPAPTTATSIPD
Method: Enzymatic Conversion of Fmoc-YpL to Fmoc-YL.
Fmoc-Tyr(PO(NMe2)2-OH (537.55 g·mol^−1) was purchased from Novabiochem. Fmoc-Tyr-OH (403.43 g·mol^−1), L-Leucine tert-butyl hydrochloride (223.74 g·mol^−1) and alkaline phosphatase from bovine, expressed in Pichia pastoris (5000 U·mg^−1protein, 20 mgprotein·mL^−1, 0.049 mL, Apparent molar weight 160 kDa) were supplied by Sigma Aldrich. One enzyme unit corresponds to the quantity of alkaline phosphatase hydrolysing 1 μmol of 4-nitrophenyl phosphate per minute at pH 9.8 and 37° C.
10 mM of synthesised Fmoc-YpL was prepared in 950 μL of 0.6 M sodium phosphate buffer pH 8 and immediately added 50 μL of alkaline phosphatase (0.0555 U·μL^−1, or 55.53 U·mL^−1 enzymatic concentration), vortexed and subject to ultra sounds at room temperature. All characterisation was done after 24 hours except when stated otherwise. For the Fmoc-YpL precursor, the preparation was the same except no enzyme was added.

[1] = Gel formation in buffer solution and chloroform; type: physicochemical; conditions: 10 mM in 0.6 M sodium phosphate buffer pH 8, no enzyme
[2] = Partitioning of peptides between water, chloroform and the water/chloroform interface (UV-Vis); type: physicochemical; conditions: water/chloroform biphasic system
Excerpt: (the volume ratio of buffer solution to chloroform is altered from 1:9, 3:7, 5:5, 7:3, to 9:1), after manual agitation for 5 seconds emulsions form in vials, as FIG. 2a shown. […] In the images shown, the milky layers are emulsions and the transparent layers above and below are the aqueous and chloroform phase, respectively. UV-Vis was used to determine the amount of Fmoc-YL that remained in water phase and transferred to chloroform. Fluorescein isothiocyanate (FITC) was used to label the aqueous phase in the emulsion layers for imaging by fluorescence microscopy.
High resolution mass spectra (HRMS) were recorded on a Thermo Electron Exactive. 400.1 (1H) NMR spectra were recorded on Brucker Avance 400 spectrometer at room temperature using perdeuterated solvents as internal standards. The emulsion droplets were characterized by fluorescence microscopy. The devices were mounted on an inverted microscope (AXIO Observer A1, Zeiss) and images were acquired using a EMCCD LucaR camera (Andor Technologies). Images (using brightfield and fluorescence microscopy) were acquired using Zeiss ×20 dry objective and the appropriate filter set for the fluorophore being imaged. Image was analyzed using ImageJ.

[3] = type: physicochemical
Method: To further increase the hydrophobicity, di- and tri-phenylalanine were tested as the peptide sequences (Fmoc-FF and Fmoc-FFF). […] Replacing the Fmoc group with pyrene, amphiphiles and the emulsion systems are inherently endowed with fluorescent properties. […] There is the clear expectation, based upon the results presented that it should be possible to change the peptide sequences and aromatic moieties to further to optimize and functionalize the emulsion systems.

[4] = Emulsion formation by aromatic peptide amphiphiles (fluorescence microscopy, FITC label); type: physicochemical; conditions: chloroform / phosphate buffer pH 8; 10 mM peptide
Method: (§1) (the volume ratio of buffer solution to chloroform is altered from 1:9, 3:7, 5:5, 7:3, to 9:1, total volume was always 1 mL), after hand-shaking for 5 seconds emulsions form in vials. For SEM, IR, stability, average particle size, critical emulsion concentration and demulsification measurements, the volume ratio of buffer solution to chloroform was fixed at 7:3. The concentration of all aromatic peptide amphiphiles studied (Fmoc-YA, Fmoc-YS, Pyr-YL, Fmoc-FF and Fmoc-FFF) was 10 mM, except for in the determination of the critical emulsion concentration (0.1-10 mM) and demulsification measurements (2 mM).

[5] = Stability of chloroform-in-water emulsions (time, heat, salts) versus SDS; type: physicochemical; conditions: 10 mM
Method: The top images show freshly prepared emulsions and the bottom images show emulsions incubated for 2 weeks. […] The top images show freshly prepared emulsions and the bottom images show emulsions heated at 60° C. for 3 hours. […] The top images show freshly prepared emulsions and the bottom images show emulsions incubated for 24 hours.
as §1

thermolysin = target: T2, thermolysin (Bacillus thermoproteolyticus, UniProt P00800); experiment: Enzymatic demulsification of emulsions by thermolysin; type: biochemical
T2 sequence (P00800 233-548): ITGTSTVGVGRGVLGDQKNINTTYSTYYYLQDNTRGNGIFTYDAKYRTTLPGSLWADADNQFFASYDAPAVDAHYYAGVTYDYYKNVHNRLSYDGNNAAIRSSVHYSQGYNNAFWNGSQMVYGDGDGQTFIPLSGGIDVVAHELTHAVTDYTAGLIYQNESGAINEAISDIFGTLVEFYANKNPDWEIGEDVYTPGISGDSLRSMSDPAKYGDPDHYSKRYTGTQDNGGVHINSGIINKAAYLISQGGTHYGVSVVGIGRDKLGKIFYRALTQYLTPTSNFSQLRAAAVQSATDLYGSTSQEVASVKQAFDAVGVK
Excerpt: Scale bar is 50 μm. […] (c) Optical photographs of vials in which emulsions formed (left) and demulsified (right) in addition of thermolysin.
Another vital advantage of using peptide self-assembly to stabilize the emulsion systems is the ability to digest the stabilizing film using a suitable enzyme. Proteases, the enzymes that cleave peptide bonds cause disassembly of amphiphiles.
as §1

Molecule: Fmoc-tyrosine phosphate-leucine [Fmoc-YpL]
time to complete conversion to Fmoc-YL (alkaline phosphatase): ≤ 24 h
Fmoc-YpL converted into Fmoc-YL (alkaline phosphatase; after 2 hours): approximately 90%
gel formation of precursor solution [1]: not able to form a gel
Remain in water (%) [2]: 31.03%
Transfer to chloroform (%) [2]: 0.74%
Transfer to interface (%) [2]: 68.23%

solubility in chloroform [3]: do dissolve in chloroform
Molecule: O=C(N[C@@H](Cc1ccccc1)C(=O)N[C@@H](Cc1ccccc1)C(=O)N[C@@H](Cc1ccccc1)C(=O)O)OCC1c2ccccc2-c2ccccc21 [Fmoc-FFF, Fmoc-Phe-Phe-Phe-OH] (Fmoc-Phe-Phe-Phe-OH)
solubility in the water phase [3]: too hydrophobic to dissolve in the water phase
type of emulsion formed [4]: formation of water-in-chloroform emulsions

emulsion state after 24 h in salt solution ([5]; 100 mM phosphate, chloride and thiocyanate solution): phase-separated
emulsion state after two weeks at room temperature ([5]; chloroform-in-water): demulsified and phase-separated
Molecule: CCCCCCCCCCCCOS(=O)(=O)[O-].[Na+] [SDS, sodium dodecyl sulfate]

Molecule: Fmoc-tyrosine-leucine [Fmoc-YL]
time for droplets to demulsify and coalesce to bigger droplets after adding thermolysin (thermolysin; 1 mg·mL^−1 thermolysin, 2 mmol·L^−1 Fmoc-YL): 60 s
conversion of cleaving reaction catalyzed by thermolysin (HPLC) (thermolysin; after 10 minutes, aqueous media): 50%
